According to US20240239861A1, “GLUCAGON-RECEPTOR SELECTIVE POLYPEPTIDES AND METHODS OF USE THEREOF” (i2O Therapeutics, Inc., priority 2016, published 2024):
Where a SMILES comes first, the peptide text is derived from it. [ ]: non-standard residue; d: D form. Aib = CC(C)(N)C(=O)O

What was measured:
[1] = biological target: human GCGR (Homo sapiens, UniProt P47871); experiment: Peptide-receptor mediated cAMP accumulation (LANCE Ultra cAMP) in CHO-K1 cells transfected with human GCGR; format: cell-based; conditions: Table 3
[2] = biological target: human GLP-1R (Homo sapiens, UniProt P43220); experiment: Peptide-receptor mediated cAMP accumulation (LANCE Ultra cAMP) in CHO-K1 cells transfected with human GLP-1R; format: cell-based; conditions: hGLP1 pEC50 (cAMP mean (n = 3): 11 point curve starting at 1 nM, Table 3)
Chain of human GLP-1R (P43220 24-463): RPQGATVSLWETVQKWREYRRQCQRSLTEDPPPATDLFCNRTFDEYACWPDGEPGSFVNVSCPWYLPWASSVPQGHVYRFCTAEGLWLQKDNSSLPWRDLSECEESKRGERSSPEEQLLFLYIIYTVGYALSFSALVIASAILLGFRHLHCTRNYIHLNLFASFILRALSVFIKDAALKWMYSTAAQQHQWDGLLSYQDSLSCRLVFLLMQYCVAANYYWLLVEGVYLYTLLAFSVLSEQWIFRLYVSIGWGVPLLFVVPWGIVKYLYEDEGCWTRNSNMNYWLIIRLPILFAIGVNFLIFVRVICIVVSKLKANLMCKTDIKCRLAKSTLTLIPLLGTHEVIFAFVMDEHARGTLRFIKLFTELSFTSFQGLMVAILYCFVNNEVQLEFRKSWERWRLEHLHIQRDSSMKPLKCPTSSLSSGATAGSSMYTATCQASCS

Chain of human GCGR (P47871 26-477): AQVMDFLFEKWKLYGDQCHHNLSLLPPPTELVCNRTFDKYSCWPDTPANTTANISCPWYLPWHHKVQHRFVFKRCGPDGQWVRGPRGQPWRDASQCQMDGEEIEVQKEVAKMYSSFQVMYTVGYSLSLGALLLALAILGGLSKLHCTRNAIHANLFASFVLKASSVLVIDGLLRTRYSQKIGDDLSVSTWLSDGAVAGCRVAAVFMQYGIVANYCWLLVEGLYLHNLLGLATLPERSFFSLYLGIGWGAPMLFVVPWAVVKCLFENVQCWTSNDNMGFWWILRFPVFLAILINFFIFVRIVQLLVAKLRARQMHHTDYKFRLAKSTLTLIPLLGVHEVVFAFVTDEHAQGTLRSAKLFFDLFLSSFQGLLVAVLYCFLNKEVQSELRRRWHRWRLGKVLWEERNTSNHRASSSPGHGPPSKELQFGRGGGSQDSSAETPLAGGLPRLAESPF

Compound	EC50 [1] [pM]	EC50 [2] [pM]
CC(C)C[C@H](NC(=O)[C@H](Cc1ccc(O)cc1)NC(=O)[C@H](CCCCN)NC(=O)[C@H](CO)NC(=O)[C@H](Cc1ccc(O)cc1)NC(=O)[C@H](CC(=O)O)NC(=O)[C@H](CO)NC(=O)[C@@H](NC(=O)[C@H](Cc1ccccc1)NC(=O)[C@@H](NC(=O)CNC(=O)[C@H](Cc1c[nH]cn1)NC(=O)[C@H](CO)NC(=O)[C@@H](N)Cc1ccc(O)cc1)[C@@H](C)O)[C@@H](C)O)C(=O)N[C@@H](CC(=O)O)C(=O)NC(C)(C)C(=O)N[C@@H](CCCCN)C(=O)N[C@@H](CCC(=O)O)C(=O)N[C@@H](C)C(=O)N[C@@H](CCC(N)=O)C(=O)N[C@@H](CCC(=O)O)C(=O)N[C@@H](Cc1ccccc1)C(=O)N[C@H](C(=O)NC(C)(C)C(=O)N[C@@H](Cc1c[nH]c2ccccc12)C(=O)N[C@@H](CC(C)C)C(=O)N[C@@H](CCC(=O)O)C(=O)N[C@@H](CC(=O)O)C(=O)N[C@@H](CCC(=O)O)C(=O)N1CCC[C@H]1C(=O)N[C@@H](CO)C(=O)N[C@@H](CO)C(=O)NCC(=O)N[C@@H](C)C(=O)N1CCC[C@H]1C(=O)N1CCC[C@H]1C(=O)N1CCC[C@H]1C(=O)N[C@@H](CO)C(=O)O)C(C)C [Compound A79] (H-YSHGTFTSDYSKYLD[Aib]KEAQEFV[Aib]WLEDEPSSGAPPPS-OH; N-terminus assumed)	63.1	> 1000
CC(C)C[C@H](NC(=O)[C@H](Cc1ccc(O)cc1)NC(=O)[C@H](CCCCN)NC(=O)[C@H](CO)NC(=O)[C@H](Cc1ccc(O)cc1)NC(=O)[C@H](CC(=O)O)NC(=O)[C@H](CO)NC(=O)[C@@H](NC(=O)[C@H](Cc1ccccc1)NC(=O)[C@@H](NC(=O)CNC(=O)[C@H](CCC(N)=O)NC(=O)[C@H](CO)NC(=O)[C@@H](N)Cc1ccc(O)cc1)[C@@H](C)O)[C@@H](C)O)C(=O)N[C@@H](CC(=O)O)C(=O)N[C@@H](CO)C(=O)N[C@@H](C)C(=O)N[C@@H](CCCNC(=N)N)C(=O)N[C@@H](C)C(=O)N[C@@H](CCC(N)=O)C(=O)N[C@@H](CCC(=O)O)C(=O)N[C@@H](Cc1ccccc1)C(=O)N[C@H](C(=O)N[C@@H](CCCCN)C(=O)N[C@@H](Cc1c[nH]c2ccccc12)C(=O)N[C@@H](CC(C)C)C(=O)N[C@@H](CCC(=O)O)C(=O)N[C@@H](CC(=O)O)C(=O)N[C@@H](CCC(=O)O)C(=O)N1CCC[C@H]1C(=O)N[C@@H](CCCCN)C(=O)N[C@@H](CO)C(=O)N[C@@H](CCCCN)C(=O)N[C@@H](CO)C(=O)N1CCC[C@H]1C(=O)N1CCC[C@H]1C(=O)N1CCC[C@H]1C(=O)N[C@@H](CO)C(=O)O)C(C)C [Compound A81] (H-YSQGTFTSDYSKYLDSARAQEFVKWLEDEPKSKSPPPS-OH; N-terminus assumed)	10	> 1000
CC(C)C[C@H](NC(=O)[C@H](Cc1ccc(O)cc1)NC(=O)[C@H](CCCCN)NC(=O)[C@H](CO)NC(=O)[C@H](Cc1ccc(O)cc1)NC(=O)[C@H](CC(=O)O)NC(=O)[C@H](CO)NC(=O)[C@@H](NC(=O)[C@H](Cc1ccccc1)NC(=O)[C@@H](NC(=O)CNC(=O)[C@H](CCC(N)=O)NC(=O)[C@H](CO)NC(=O)[C@@H](N)Cc1c[nH]c2ccccc12)[C@@H](C)O)[C@@H](C)O)C(=O)N[C@@H](CC(=O)O)C(=O)NC(C)(C)C(=O)N[C@@H](CCCCN)C(=O)N[C@@H](C)C(=O)N[C@@H](C)C(=O)N[C@@H](CCC(N)=O)C(=O)N[C@@H](CCC(=O)O)C(=O)N[C@@H](Cc1ccccc1)C(=O)N[C@H](C(=O)NC(C)(C)C(=O)N[C@@H](Cc1c[nH]c2ccccc12)C(=O)N[C@@H](CC(C)C)C(=O)N[C@@H](CCC(=O)O)C(=O)N[C@@H](CC(=O)O)C(=O)N[C@@H](CCC(=O)O)C(=O)N1CCC[C@H]1C(=O)N[C@@H](CO)C(=O)N[C@@H](CO)C(=O)NCC(=O)N[C@@H](C)C(=O)N1CCC[C@H]1C(=O)N1CCC[C@H]1C(=O)N1CCC[C@H]1C(=O)N[C@@H](CO)C(=O)O)C(C)C [Compound A92] (H-WSQGTFTSDYSKYLD[Aib]KAAQEFV[Aib]WLEDEPSSGAPPPS-OH; N-terminus assumed)	20	> 1000

The remaining lines, values ahead:

EC50 [1] [pM]	EC50 [2] [pM]	Compound
10	> 1000	CC(C)C[C@H](NC(=O)[C@H](Cc1ccc(O)cc1)NC(=O)[C@H](CCCCN)NC(=O)[C@H](CO)NC(=O)[C@H](Cc1ccc(O)cc1)NC(=O)[C@H](CC(=O)O)NC(=O)[C@H](CO)NC(=O)[C@@H](NC(=O)[C@H](Cc1ccccc1)NC(=O)[C@@H](NC(=O)CNC(=O)[C@H](CCC(N)=O)NC(=O)[C@H](CO)NC(=O)[C@@H](N)Cc1ccc(O)cc1)[C@@H](C)O)[C@@H](C)O)C(=O)N[C@@H](CC(=O)O)C(=O)N[C@@H](CO)C(=O)N[C@@H](C)C(=O)N[C@@H](CCCNC(=N)N)C(=O)N[C@@H](C)C(=O)N[C@@H](CCC(N)=O)C(=O)N[C@@H](CCC(=O)O)C(=O)N[C@@H](Cc1ccccc1)C(=O)N[C@H](C(=O)N[C@@H](CCCCN)C(=O)N[C@@H](Cc1c[nH]c2ccccc12)C(=O)N[C@@H](CC(C)C)C(=O)N[C@@H](CCC(=O)O)C(=O)N[C@@H](CC(=O)O)C(=O)N[C@@H](CCC(=O)O)C(=O)N1CCC[C@H]1C(=O)N[C@@H](CCCCN)C(=O)N[C@@H](CO)C(=O)N[C@@H](CCCCN)C(=O)N[C@@H](C)C(=O)N1CCC[C@H]1C(=O)N1CCC[C@H]1C(=O)N1CCC[C@H]1C(=O)N[C@@H](CO)C(=O)O)C(C)C [Compound A82] (H-YSQGTFTSDYSKYLDSARAQEFVKWLEDEPKSKAPPPS-OH; N-terminus assumed)
63.1	> 1000	CC(C)C[C@H](NC(=O)[C@H](Cc1ccc(O)cc1)NC(=O)[C@H](CCCCN)NC(=O)[C@H](CO)NC(=O)[C@H](Cc1ccc(O)cc1)NC(=O)[C@H](CC(=O)O)NC(=O)[C@H](CO)NC(=O)[C@@H](NC(=O)[C@H](Cc1ccccc1)NC(=O)[C@@H](NC(=O)CNC(=O)[C@H](Cc1c[nH]cn1)NC(=O)[C@H](CO)NC(=O)[C@@H](N)Cc1ccc(O)cc1)[C@@H](C)O)[C@@H](C)O)C(=O)N[C@@H](CC(=O)O)C(=O)N[C@@H](CO)C(=O)N[C@@H](C)C(=O)N[C@@H](CCCNC(=N)N)C(=O)N[C@@H](C)C(=O)N[C@@H](CCC(N)=O)C(=O)N[C@@H](CCC(=O)O)C(=O)N[C@@H](Cc1ccccc1)C(=O)N[C@H](C(=O)N[C@@H](CCCCN)C(=O)N[C@@H](Cc1c[nH]c2ccccc12)C(=O)N[C@@H](CC(C)C)C(=O)N[C@@H](CCC(=O)O)C(=O)N[C@@H](CC(=O)O)C(=O)N[C@@H](CCC(=O)O)C(=O)N1CCC[C@H]1C(=O)N[C@@H](CCCCN)C(=O)N[C@@H](CO)C(=O)N[C@@H](CCCCN)C(=O)N[C@@H](CO)C(=O)N1CCC[C@H]1C(=O)N1CCC[C@H]1C(=O)N1CCC[C@H]1C(=O)N[C@@H](CO)C(=O)O)[C@@H](C)O [Compound A83] (H-YSHGTFTSDYSKYLDSARAQEFTKWLEDEPKSKSPPPS-OH; N-terminus assumed)
398	> 1000	CC(C)C[C@H](NC(=O)[C@H](Cc1ccc(O)cc1)NC(=O)[C@H](CCCCN)NC(=O)[C@H](CO)NC(=O)[C@H](Cc1ccc(O)cc1)NC(=O)[C@H](CC(=O)O)NC(=O)[C@H](CO)NC(=O)[C@@H](NC(=O)[C@H](Cc1ccccc1)NC(=O)[C@@H](NC(=O)CNC(=O)[C@H](Cc1c[nH]cn1)NC(=O)[C@H](CO)NC(=O)[C@@H](N)Cc1ccc(O)cc1)[C@@H](C)O)[C@@H](C)O)C(=O)N[C@@H](CC(=O)O)C(=O)N[C@@H](CO)C(=O)N[C@@H](C)C(=O)N[C@@H](CCCNC(=N)N)C(=O)N[C@@H](C)C(=O)N[C@@H](CCC(N)=O)C(=O)N[C@@H](CCC(=O)O)C(=O)N[C@@H](Cc1ccccc1)C(=O)N[C@H](C(=O)N[C@@H](CCCCN)C(=O)N[C@@H](Cc1c[nH]cn1)C(=O)N[C@@H](CC(C)C)C(=O)N[C@@H](CCC(=O)O)C(=O)N[C@@H](CC(=O)O)C(=O)N[C@@H](CCC(=O)O)C(=O)N1CCC[C@H]1C(=O)N[C@@H](CCCCN)C(=O)N[C@@H](CO)C(=O)N[C@@H](CCCCN)C(=O)N[C@@H](CO)C(=O)N1CCC[C@H]1C(=O)N1CCC[C@H]1C(=O)N1CCC[C@H]1C(=O)N[C@@H](CO)C(=O)O)C(C)C [Compound A84] (H-YSHGTFTSDYSKYLDSARAQEFVKHLEDEPKSKSPPPS-OH; N-terminus assumed)
12.6	> 1000	CC(C)C[C@H](NC(=O)[C@H](Cc1ccc(O)cc1)NC(=O)[C@H](CCCCN)NC(=O)[C@H](CO)NC(=O)[C@H](Cc1ccc(O)cc1)NC(=O)[C@H](CC(=O)O)NC(=O)[C@H](CO)NC(=O)[C@@H](NC(=O)[C@H](Cc1ccccc1)NC(=O)[C@@H](NC(=O)CNC(=O)[C@H](CCC(N)=O)NC(=O)[C@H](CO)NC(=O)[C@@H](N)Cc1c[nH]c2ccccc12)[C@@H](C)O)[C@@H](C)O)C(=O)N[C@@H](CC(=O)O)C(=O)NC(C)(C)C(=O)N[C@@H](CCCCN)C(=O)N[C@@H](C)C(=O)N[C@@H](C)C(=O)N[C@@H](CCC(N)=O)C(=O)N[C@@H](CCC(=O)O)C(=O)N[C@@H](Cc1ccccc1)C(=O)N[C@H](C(=O)NC(C)(C)C(=O)N[C@@H](Cc1c[nH]c2ccccc12)C(=O)N[C@@H](CC(C)C)C(=O)N[C@@H](CCC(=O)O)C(=O)N[C@@H](CC(=O)O)C(=O)N[C@@H](CCC(=O)O)C(=O)N1CCC[C@H]1C(=O)N[C@@H](CO)C(=O)N[C@@H](CO)C(=O)NCC(=O)N[C@@H](CCCCN)C(=O)N1CCC[C@H]1C(=O)N1CCC[C@H]1C(=O)N1CCC[C@H]1C(=O)N[C@@H](CO)C(=O)O)C(C)C [Compound A93] (H-WSQGTFTSDYSKYLD[Aib]KAAQEFV[Aib]WLEDEPSSGKPPPS-OH; N-terminus assumed)
